Experimental data published in patent US5250538A, “Indole derivatives and their use” (Novo Nordisk A/S, priority 1990, dated 1993).
Where a name gives a salt, the structure may show the parent alone.

Columns and labels:
5-HT1B = target: T1, 5-HT1B (Rattus norvegicus, UniProt P28564); assay: 5-HT1B receptor binding in vitro (3H-5-HT, 50 nM 8-OH-DPAT included)
T1 construct: from tissue
Experimental: (§1) Compounds of the general formula (I) were tested for binding to 5-HT receptors and compared with known ligands by the following procedure:
(§2) Rat brain tissue (as specified in the table hereinafter) was homogenized using a Polytron homogenizer. The final pellet was resuspended in 125 vol (tissue wet weight) of buffer.
(§3) In all assays incubation was carried out for 10 min at 37° C.
Labelling of the 5-HT1B receptor was complicated by the fact that the available ligand ^3 H-5-HT is nonselective.
(§4) Detailed conditions for the receptor binding assay in vitro are tabulated below.

5-HT1A = target: T2, 5-HT1A (Rattus norvegicus, UniProt P19327); assay: 5-HT1A receptor binding in vitro (3H-8-OH-DPAT, rat frontal cortex/hippocampus); conditions: rat brain, ligand 3H-8-OH-DPAT 2 nM, 10 min 37° C.
T2 construct: from tissue
T2 sequence (P19327 1-422): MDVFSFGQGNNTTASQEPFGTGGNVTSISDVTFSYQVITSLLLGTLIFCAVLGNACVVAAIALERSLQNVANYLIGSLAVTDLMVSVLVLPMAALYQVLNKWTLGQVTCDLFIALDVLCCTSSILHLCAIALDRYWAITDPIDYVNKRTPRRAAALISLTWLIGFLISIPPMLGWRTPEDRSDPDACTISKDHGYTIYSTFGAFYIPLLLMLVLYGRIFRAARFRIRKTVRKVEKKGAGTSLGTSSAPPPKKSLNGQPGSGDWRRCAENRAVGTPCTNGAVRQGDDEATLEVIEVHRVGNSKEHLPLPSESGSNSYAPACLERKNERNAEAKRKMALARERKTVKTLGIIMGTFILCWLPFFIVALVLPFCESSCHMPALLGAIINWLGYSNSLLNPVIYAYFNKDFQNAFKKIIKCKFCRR
Experimental: as §1, §2, §3, §4

5-HT1A receptors = conditions: background, in words; cited from earlier work
5-HT1 recognition sites = conditions: background, Ann.Reports Med.Chem. 21 (1986), 42-43; cited from earlier work
5-HT2 receptor subtype = conditions: background, in words; cited from earlier work

T1 sequence (P28564 whole entry): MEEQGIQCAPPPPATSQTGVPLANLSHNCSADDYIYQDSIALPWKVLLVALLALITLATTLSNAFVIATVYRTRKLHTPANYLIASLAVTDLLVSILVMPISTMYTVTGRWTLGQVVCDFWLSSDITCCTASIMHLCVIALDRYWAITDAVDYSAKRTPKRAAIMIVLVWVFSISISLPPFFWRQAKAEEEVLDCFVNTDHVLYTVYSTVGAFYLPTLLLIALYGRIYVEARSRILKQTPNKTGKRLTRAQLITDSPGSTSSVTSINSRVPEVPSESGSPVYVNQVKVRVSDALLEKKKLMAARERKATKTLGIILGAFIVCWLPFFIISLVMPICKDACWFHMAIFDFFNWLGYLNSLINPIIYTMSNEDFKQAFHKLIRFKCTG

Compound: O=C1C2C3C=CC(C4C=CC43)C2C(=O)N1CCCCNCCc1c[nH]c2ccccc12 (stereo not drawn) [Example 1, 1-(4-(1,3-Dioxo-4,7-etheno-1,3,3a,4,4a,6a,7,7a-octahydro-2 H-cyclobut[f]isoindol-2-yl)butyl-1-amino)-2-(3-indolyl)-ethane, oxalate]
- IC50 (5-HT1B): 480 nM
- IC50 (5-HT1A): 26 nM

Compound: O=C1c2ccccc2C(=O)N1CCCCNCCc1c[nH]c2ccccc12 [Example 2, 1-(4-Phthalimidobutyl-1-amino)-2-(3-indolyl)-ethane, oxalate]
- IC50 (5-HT1B): 148 nM
- IC50 (5-HT1A): 375 nM

Compound: COc1ccc2[nH]cc(CCNCCCCN3C(=O)CC4(CCCC4)CC3=O)c2c1 [Example 4, 1-(4-(7,9-Dioxo-8-azaspiro[4,5]decan-8-yl)butyl-1-amino)-2-(5-methoxy-3-indolyl)-ethane, oxalate]
- IC50 (5-HT1B): > 1000 nM
- IC50 (5-HT1A): 4 nM

Compound: COc1ccc2[nH]cc(CCNCCCCN3C(=O)C4C5C=CC(C6C=CC65)C4C3=O)c2c1 (stereo not drawn) [Example 5, 1-(4-(1,3-Dioxo-4,7-etheno-1,3,3a,4,4a,6a,7,7a-octa-hydro-2 H-cyclobut(f]isoindol-2-yl)butyl-1-amino)-2(5-methoxy-3-indolyl)-ethand, oxalate]
- IC50 (5-HT1B): > 1000 nM
- IC50 (5-HT1A): 2.5 nM

Compound: CCCN(CCC)C1CCc2cccc(O)c2C1 (stereo not drawn) [Example 8-OH-DPAT, 8-hydroxy-2-(di-n-propylamino)tetralin]
- binds with high affinity to 5-HT1A receptors (5-HT1A receptors): high affinity

Compound: O=C1c2ccccc2S(=O)(=O)N1CCCCN1CCN(c2ncccn2)CC1 [Ipsapirone, reference compound]
- IC50 (5-HT1B): > 1000 nM

Compound: COc1ccc2[nH]cc(C3=CCNCC3)c2c1 [RU 24969]
- affinity for 5-HT1 recognition sites (5-HT1 recognition sites): high affinity

Compound: O=C(c1ccc(F)cc1)C1CCN(CCn2c(=O)[nH]c3ccccc3c2=O)CC1 [ketanserin]
- high affinity for the 5-HT2 receptor subtype (5-HT2 receptor subtype): high affinity
